# Data: patent EP4772500A1, “NOVEL ISOXAZOLE COMPOUND AS TM4SF5-SPECIFIC INHIBITOR AND USE THEREOF” (Seoul National University R&DB Foundation, priority 2023, dated 2025)
# Several values for one entry are separate records, joined by “and”; a condition that tells them apart may be missing. Equal entries are not always repeated.
# Legend:
# [1] = test system: Alb-TG^Tm4sf5-Flag mice; experiment: DEN-induced liver cancer model in TM4SF5 transgenic animals; type: in vivo
# Description: A liver cancer model was induced in 2-week-old male wild type (WT), Alb-TG^Tm4sf5-Flag [genetically modified animals in which Tm4sf5 expression is excessively regulated by the promoter of the Albumin gene, custom-made by Macrogen Co., Ltd.], or Tm4sf5^-/- KO C57BL/6N male animals by a single intraperitoneal injection (IP injection) of DEN (diethylnitrosamine, Sigma-Aldrich) at a concentration of 25 mg/kg, followed by raising for […]. After the DEN treatment, the animals were raised in a pathogen-free room animal facility where temperature and humidity were well controlled under a normal diet for 40 weeks. During the last 6 weeks, an isoxazole drug (dissolved in 40% DMSO) at the indicated concentration was treated by intraperitoneal injection twice a week. Forty-six weeks after the DEN injection, the animals were sacrificed, and liver tissues were analyzed through methods of tissue staining, Western blot, and qRT-PCR.
# In cases where a liver cancer model is induced by treating animals with diethylnitrosamine (DEN), liver cancer formation was induced by a single intraperitoneal injection (IP injection) of DEN into 2-week-old animals, followed by raising them for 46 weeks. […] Thereafter, the animals were sacrificed, and liver tissues were obtained and analyzed. […]
# [2] = target: T1, HA-TM4SF5 obtained from Huh7KO-HA-TM4SF5 (Homo sapiens, UniProt O14894); experiment: Binding of 14C-labelled ST-5-002 to pulled-down HA-TM4SF5
# T1 construct: expressed in transfected cells; host or cells: Huh7KO (TM4SF5 knockout Huh7) stably infected with pBabe-HA-TM4SF5 retrovirus; captured with anti-HA antibody
# T1 sequence (O14894 1-197): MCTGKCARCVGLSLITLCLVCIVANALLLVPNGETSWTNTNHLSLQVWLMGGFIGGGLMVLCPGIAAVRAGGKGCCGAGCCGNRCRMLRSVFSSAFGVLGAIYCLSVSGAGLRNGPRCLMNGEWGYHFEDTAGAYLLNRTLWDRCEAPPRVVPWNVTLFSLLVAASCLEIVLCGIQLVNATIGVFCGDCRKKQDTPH
# Description: For Huh7KO cells, stable cell lines were established by infecting with a retrovirus inducing the expression of pBabe-HA-EV or pBabe-HA-TM4SF5. Cell extracts were obtained, and extracts containing 0.2 or 0.25 mg of protein were reacted with an anti-HA antibody and HA-tagged TM4SF5, or with streptavidin agarose resin for Strep-PD-L1 or Strep-TM4SF5 at 4°C for 2 hours for pulldown. Subsequently, in the presence or absence of cold ST-5-002 (400 µM), the samples were treated with ^14C-labelled ST-5-002 (10 or 25 µM) and reacted at 4°C for 1 hour, after which radioactive isotope values were repeatedly measured using a TriCarb scintillation counter (PerkinElmer, Waltham, MA).
# After culturing HEK293FT cells transfected with Strep-EV or Strep-TM4SF5 expression vectors, or Huh7KO cells stably expressing pBabe-HA-EV or pBabe-HA-TM4SF5, cell extracts were obtained. […] The pulled-down proteins were treated with ^14C-labelled ST-5-002 at various concentrations (10 nM, 100 nM, 1 µM, 5 µM, 10 µM, 50 µM) and reacted at 4°C for 1 hour, after which radioactive isotope values were repeatedly measured using a TriCarb scintillation counter (PerkinElmer, Waltham, MA). The EC50 was calculated by normalizing the average radioactive isotope value of TM4SF5 obtained through the measurements by dividing it by the average value of EV. […]
"EC50 ([2]; 14C-labelled ST-5-002, HA-TM4SF5, 4°C, 1 hour (FIG. 19b))",binding of 14C-labelled ST-5-002 to HA-TM4SF5 ([2]; simultaneous treatment with cold ST-5-002 (400 µM) (FIG. 19b)),SMILES,"cancer formation ([1]; DEN 25 mg/kg, drug 5 mg/kg IP twice a week for the final 6 weeks, Alb-TG^Tm4sf5-Flag mice (FIG. 23b))","mRNA expressions of NK cell activating receptor factors such as SLAMF7, NKG2D, CRTAM, DNAM-1, and CD27 ([1]; qRT-PCR of liver tissues (FIG. 23c))"
,,"COc1ccc(-c2cc(-c3ccc(NC(C)=O)cc3)no2)cc1 [ST-2-001, N-(4-(5-(4-methoxyphenyl)isoxazole-3-yl)phenyl)acetamide]",minimal or did not occur,partially recovered and increased
850 nM and 875 nM,decreased,"Cc1ccc(C(=O)Nc2ccc(-c3cc(-c4ccc(O)cc4)no3)cc2)cc1 [ST-5-002, N-(4-(3-(4-hydroxyphenyl)isoxazole-5-yl)phenyl)-4-methylbenzamide]",,
